The values that follow come from patent US20240109865A1, “INDAZOLE COMPOUNDS AS KINASE INHIBITORS” (TYRA BIOSCIENCES, INC., priority 2020, published 2024).

What all share (assay): Kinase assay, binding constants (Kd), kinase-tagged T7 phage, qPCR
For orientation: Real-time PCR tracks product formation cycle by cycle.

The target in one test is FGFR1 (Homo sapiens (Human), UniProt P11362). Put shortly:
(§1)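 Competition binding: T7 phage-tagged kinase + biotin-ligand beads + compound (11 pts, 3-fold, 0.9% DMSO). Elution 30 min RT with free ligand; qPCR quantitation. Kd via Hill fit, slope −1.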

In another test the target is FGFR2 (Homo sapiens (Human), UniProt P21802). In short, it runs like this:
as §1

The target in the next test is FGFR3 (Homo sapiens (Human), UniProt P22607). Put shortly: as §1
The next test deals with FGFR3 (V555M) (Homo sapiens (Human), UniProt P22607, V555M). Conditions: V555M mutant. Put shortly:
as §1

The target of a further test is FGFR4 (Homo sapiens (Human), UniProt P22455). Put shortly:
as §1

Chain of FGFR1 (P11362 22-822): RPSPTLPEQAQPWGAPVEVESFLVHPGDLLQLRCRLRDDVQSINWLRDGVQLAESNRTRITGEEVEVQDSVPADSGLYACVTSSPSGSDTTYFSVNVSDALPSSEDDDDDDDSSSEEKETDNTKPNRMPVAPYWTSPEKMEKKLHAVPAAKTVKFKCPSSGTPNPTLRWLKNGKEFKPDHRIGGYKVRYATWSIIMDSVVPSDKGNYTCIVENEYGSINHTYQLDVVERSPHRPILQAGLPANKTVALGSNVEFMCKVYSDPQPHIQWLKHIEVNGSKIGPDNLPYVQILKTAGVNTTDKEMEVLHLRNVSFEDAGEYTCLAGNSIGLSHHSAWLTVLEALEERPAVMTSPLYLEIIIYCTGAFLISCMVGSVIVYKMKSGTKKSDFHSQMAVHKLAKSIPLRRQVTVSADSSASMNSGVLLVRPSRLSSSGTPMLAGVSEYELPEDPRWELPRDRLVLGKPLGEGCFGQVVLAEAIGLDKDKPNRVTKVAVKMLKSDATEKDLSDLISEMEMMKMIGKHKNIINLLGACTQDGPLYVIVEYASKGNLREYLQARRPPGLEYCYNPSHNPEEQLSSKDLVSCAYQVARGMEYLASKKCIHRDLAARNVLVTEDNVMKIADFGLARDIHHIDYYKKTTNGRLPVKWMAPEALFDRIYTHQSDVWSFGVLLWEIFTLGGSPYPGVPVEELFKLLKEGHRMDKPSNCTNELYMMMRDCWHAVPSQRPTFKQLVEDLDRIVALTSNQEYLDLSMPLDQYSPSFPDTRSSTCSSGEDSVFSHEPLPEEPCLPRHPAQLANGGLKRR
Chain of FGFR4 (P22455 22-802): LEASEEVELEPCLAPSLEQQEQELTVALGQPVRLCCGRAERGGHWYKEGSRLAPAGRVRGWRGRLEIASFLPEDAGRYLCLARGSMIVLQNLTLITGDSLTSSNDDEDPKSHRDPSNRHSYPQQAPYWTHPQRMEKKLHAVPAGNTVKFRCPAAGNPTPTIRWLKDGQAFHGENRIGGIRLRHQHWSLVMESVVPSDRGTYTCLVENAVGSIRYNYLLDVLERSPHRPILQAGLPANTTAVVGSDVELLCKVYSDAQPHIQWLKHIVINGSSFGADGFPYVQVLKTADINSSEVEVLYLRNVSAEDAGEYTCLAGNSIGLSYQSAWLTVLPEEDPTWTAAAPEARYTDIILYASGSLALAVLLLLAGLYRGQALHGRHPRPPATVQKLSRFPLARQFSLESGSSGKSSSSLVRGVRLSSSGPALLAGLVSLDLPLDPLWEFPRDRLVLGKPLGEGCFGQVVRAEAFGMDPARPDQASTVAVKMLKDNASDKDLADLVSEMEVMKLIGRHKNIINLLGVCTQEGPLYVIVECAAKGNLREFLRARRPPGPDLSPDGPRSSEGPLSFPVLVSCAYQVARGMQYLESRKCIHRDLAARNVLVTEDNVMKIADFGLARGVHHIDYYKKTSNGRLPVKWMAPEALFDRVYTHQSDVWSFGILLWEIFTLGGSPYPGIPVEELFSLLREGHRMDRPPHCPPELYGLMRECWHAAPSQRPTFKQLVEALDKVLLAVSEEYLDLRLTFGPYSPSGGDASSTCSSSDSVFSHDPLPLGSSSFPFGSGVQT
Chain of FGFR3 (V555M) (P22607 23-806 V555M): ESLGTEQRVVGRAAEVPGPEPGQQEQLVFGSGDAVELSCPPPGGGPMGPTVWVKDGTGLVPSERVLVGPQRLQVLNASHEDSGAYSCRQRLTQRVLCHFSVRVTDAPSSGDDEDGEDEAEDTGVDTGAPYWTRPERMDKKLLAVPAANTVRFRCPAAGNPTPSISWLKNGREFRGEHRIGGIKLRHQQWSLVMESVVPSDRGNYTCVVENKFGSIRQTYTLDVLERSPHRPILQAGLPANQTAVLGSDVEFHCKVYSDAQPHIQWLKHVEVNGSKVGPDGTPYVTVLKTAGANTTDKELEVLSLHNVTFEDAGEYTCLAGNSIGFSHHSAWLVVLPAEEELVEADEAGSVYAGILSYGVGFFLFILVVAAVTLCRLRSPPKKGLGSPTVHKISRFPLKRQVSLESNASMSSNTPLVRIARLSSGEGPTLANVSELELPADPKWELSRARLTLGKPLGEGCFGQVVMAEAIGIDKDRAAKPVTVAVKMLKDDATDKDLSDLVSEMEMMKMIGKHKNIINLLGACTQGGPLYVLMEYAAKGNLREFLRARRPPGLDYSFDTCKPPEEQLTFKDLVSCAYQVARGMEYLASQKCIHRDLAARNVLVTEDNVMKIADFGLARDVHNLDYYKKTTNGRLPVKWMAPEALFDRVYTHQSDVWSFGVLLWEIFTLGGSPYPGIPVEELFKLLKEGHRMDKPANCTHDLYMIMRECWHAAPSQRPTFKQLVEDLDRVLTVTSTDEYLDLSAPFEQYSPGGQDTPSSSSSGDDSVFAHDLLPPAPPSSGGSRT
Chain of FGFR2 (P21802 22-821): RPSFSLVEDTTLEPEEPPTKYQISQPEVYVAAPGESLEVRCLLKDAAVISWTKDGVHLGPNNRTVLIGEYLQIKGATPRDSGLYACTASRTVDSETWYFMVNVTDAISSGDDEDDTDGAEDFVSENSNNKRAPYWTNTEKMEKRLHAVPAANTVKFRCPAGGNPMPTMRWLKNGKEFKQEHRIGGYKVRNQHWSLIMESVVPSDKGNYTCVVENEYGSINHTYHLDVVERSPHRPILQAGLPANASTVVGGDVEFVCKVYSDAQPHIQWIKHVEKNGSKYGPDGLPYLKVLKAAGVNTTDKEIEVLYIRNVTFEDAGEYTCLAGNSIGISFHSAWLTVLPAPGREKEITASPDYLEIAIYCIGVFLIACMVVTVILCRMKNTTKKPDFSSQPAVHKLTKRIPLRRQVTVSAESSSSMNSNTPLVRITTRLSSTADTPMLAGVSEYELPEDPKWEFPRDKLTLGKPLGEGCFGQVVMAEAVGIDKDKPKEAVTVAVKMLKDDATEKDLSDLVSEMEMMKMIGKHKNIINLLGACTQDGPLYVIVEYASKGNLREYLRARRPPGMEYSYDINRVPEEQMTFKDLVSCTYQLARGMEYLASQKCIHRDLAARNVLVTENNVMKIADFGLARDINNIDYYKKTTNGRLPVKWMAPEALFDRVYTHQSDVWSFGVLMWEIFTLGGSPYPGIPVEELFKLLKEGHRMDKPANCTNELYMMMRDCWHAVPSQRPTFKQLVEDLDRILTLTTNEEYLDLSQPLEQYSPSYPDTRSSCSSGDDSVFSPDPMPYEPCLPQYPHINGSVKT
Chain of FGFR3 (P22607 23-806): as the sequence (P22607 23-806 V555M) above, with M533V counted along it

As a reminder, the Kd is the constant that tells how readily two partners part at equilibrium. Regarding `C[C@@H](Oc1cc2c(-c3ccc(N4CC5(C4)CN(S(C)(=O)=O)C5)nc3)n[nH]c2cc1F)c1c(Cl)cnnc1Cl` [Example 262, (R)-5-(1-(3,5-dichloropyridazin-4-yl)ethoxy)-6-fluoro-3-(6-(6-(methylsulfonyl)-2,6-diazaspiro[3.3]heptan-2-yl)pyridin-3-yl)-1H-indazole], the Kd at FGFR1, on FGFR2, on FGFR3, on FGFR3 (V555M) and at FGFR4 was 1 to 20 nM in each case.
In the case of `C[C@@H](Oc1cc2c(-c3ccc(N4CC5(C4)CN(S(C)(=O)=O)C5)nc3)n[nH]c2cc1Cl)c1c(Cl)cnnc1Cl` [Example 263, (R)-6-chloro-5-(1-(3,5-dichloropyridazin-4-yl)ethoxy)-3-(6-(6-(methylsulfonyl)-2,6-diazaspiro[3.3]heptan-2-yl)pyridin-3-yl)-1H-indazole], the Kd at FGFR1, on FGFR2, on FGFR3, at FGFR3 (V555M) and on FGFR4 was 1 to 20 nM throughout.
With `C[C@@H](Oc1cc2c(-c3cnc(N4CC5(C4)CN(S(C)(=O)=O)C5)c(F)c3)n[nH]c2cc1Cl)c1c(Cl)cnnc1Cl` [Example 264, (R)-6-chloro-5-(1-(3,5-dichloropyridazin-4-yl)ethoxy)-3-(5-fluoro-6-(6-(methylsulfonyl)-2,6-diazaspiro[3.3]heptan-2-yl)pyridin-3-yl)-1H-indazole], the Kd at FGFR1, on FGFR2, at FGFR3, at FGFR3 (V555M) and on FGFR4 was 1 to 20 nM each time.
With `C[C@@H](Oc1ccc2[nH]nc(-c3cnc(N4CC(C)(N)C4)c(F)c3)c2c1)c1c(Cl)cncc1Cl` [Example 265, (R)-1-(5-(5-(1-(3,5-dichloropyridin-4-yl)ethoxy)-1H-indazol-3-yl)-3-fluoropyridin-2-yl)-3-methylazetidin-3-amine], the dissociation constant (Kd) at FGFR1, on FGFR2, on FGFR3, on FGFR3 (V555M) and on FGFR4 was 1 to 20 nM throughout.
Turning to `Cc1ncc(Cl)c([C@@H](C)Oc2cc3c(-c4ccc(N5CC6(C5)CN(S(C)(=O)=O)C6)nc4)n[nH]c3cc2F)c1Cl` [Example 266, 5-[(1R)-1-(3,5-dichloro-2-methyl-4-pyridyl)ethoxy]-6-fluoro-3-[6-(2-methylsulfonyl-2,6-diazaspiro[3.3]heptan-6-yl)-3-pyridyl]-1H-indazole], the Kd on FGFR1, at FGFR2, at FGFR3, on FGFR3 (V555M) and at FGFR4 was 1 to 20 nM throughout.
For the compound `COc1cc2[nH]nc(-c3cnc(N4CC[C@H]4C)c(F)c3)c2cc1O[C@H](C)c1c(Cl)cncc1Cl` [Example 267, 5-((R)-1-(3,5-dichloropyridin-4-yl)ethoxy)-3-(5-fluoro-6-((R)-2-methylazetidin-1-yl)pyridin-3-yl)-6-methoxy-1H-indazole], the Kd fell in the range of 20 to 100 nM on FGFR1; 20 to 100 nM at FGFR2; 1 to 20 nM on FGFR3; 1 to 20 nM on FGFR3 (V555M); 1 to 20 nM at FGFR4.
Regarding `COc1cc2[nH]nc(-c3cnc(N4CCC4)c(F)c3)c2cc1O[C@H](C)c1c(Cl)cncc1Cl` [Example 268, (R)-3-(6-(azetidin-1-yl)-5-fluoropyridin-3-yl)-5-(1-(3,5-dichloropyridin-4-yl)ethoxy)-6-methoxy-1H-indazole], the Kd lay within 20 to 100 nM at FGFR1; 20 to 100 nM on FGFR2; 1 to 20 nM at FGFR3; 1 to 20 nM on FGFR3 (V555M); 1 to 20 nM on FGFR4.
Take `Cc1ncc(Cl)c([C@@H](C)Oc2cc3c(-c4cnc(N5CC6(C5)CN(S(C)(=O)=O)C6)c(F)c4)n[nH]c3cc2F)c1Cl` [Example 269, 5-[(1R)-1-(3,5-dichloro-2-methyl-4-pyridyl)ethoxy]-6-fluoro-3-[5-fluoro-6-(2-methylsulfonyl-2,6-diazaspiro[3.3]heptan-6-yl)-3-pyridyl]-1H-indazole]: the Kd lay within 20 to 100 nM on FGFR1; 20 to 100 nM at FGFR2; 1 to 20 nM on FGFR3; 1 to 20 nM on FGFR3 (V555M); 1 to 20 nM at FGFR4.
As for `Cc1ncc(Cl)c([C@@H](C)Oc2cc3c(-c4cnc(N5CC6(C5)CN(S(C)(=O)=O)C6)c(F)c4)n[nH]c3cc2Cl)c1Cl` [Example 270, 6-chloro-5-[(1R)-1-(3,5-dichloro-2-methyl-4-pyridyl)ethoxy]-3-[5-fluoro-6-(2-methylsulfonyl-2,6-diazaspiro[3.3]heptan-6-yl)-3-pyridyl]-1H-indazole], the Kd on FGFR1 is 20 to 100 nM; at FGFR2, 20 to 100 nM; on FGFR3, 1 to 20 nM; on FGFR3 (V555M), 1 to 20 nM; on FGFR4, 1 to 20 nM.
With `COc1cc2[nH]nc(-c3cnc(N4CC[C@@H]4C)c(F)c3)c2cc1O[C@H](C)c1c(Cl)cncc1Cl` [Example 271, 5-((R)-1-(3,5-dichloropyridin-4-yl)ethoxy)-3-(5-fluoro-6-((S)-2-methylazetidin-1-yl)pyridin-3-yl)-6-methoxy-1H-indazole], the Kd at FGFR1 lay in the range of 20 to 100 nM; on FGFR2, 20 to 100 nM; at FGFR3, 1 to 20 nM; at FGFR3 (V555M), 1 to 20 nM; on FGFR4 it was 1 to 20 nM.
Regarding `C[C@@H]1CCN1c1ncc(-c2n[nH]c3cc(Cl)c(O[C@H](C)c4c(Cl)cncc4Cl)cc23)cc1F` [Example 272, 6-chloro-5-((R)-1-(3,5-dichloropyridin-4-yl)ethoxy)-3-(5-fluoro-6-((R)-2-methylazetidin-1-yl)pyridin-3-yl)-1H-indazole], the dissociation constant (Kd) on FGFR1 is more than 300 nM; on FGFR2, more than 300 nM; at FGFR3, 20 to 100 nM; on FGFR3 (V555M), 20 to 100 nM; on FGFR4 it was 20 to 100 nM.
With `Cc1cc2[nH]nc(-c3cnc(N4CC5(C4)CN(S(C)(=O)=O)C5)c(F)c3)c2cc1O[C@H](C)c1c(Cl)cnc(C)c1Cl` [Example 273, 5-[(1R)-1-(3,5-dichloro-2-methyl-4-pyridyl)ethoxy]-3-[5-fluoro-6-(2-methylsulfonyl-2,6-diazaspiro[3.3]heptan-6-yl)-3-pyridyl]-6-methyl-1H-indazole], the Kd at FGFR1 was 20 to 100 nM; at FGFR2, 20 to 100 nM; at FGFR3, 1 to 20 nM; on FGFR3 (V555M) (given as a number), 1.8 nM; at FGFR4, 1 to 20 nM.
As for `Cc1ncc(Cl)c([C@@H](C)Oc2cc3c(-c4cnc(N5CCC5)c(F)c4)n[nH]c3cc2Cl)c1Cl` [Example 274, 3-[6-(azetidin-1-yl)-5-fluoro-3-pyridyl]-6-chloro-5-[(1R)-1-(3,5-dichloro-2-methyl-4-pyridyl)ethoxy]-1H-indazole], the Kd fell in the range of 100 to 300 nM at FGFR1; 100 to 300 nM at FGFR2; 20 to 100 nM on FGFR3; 1 to 20 nM on FGFR3 (V555M); 20 to 100 nM on FGFR4.
Consider `CNC1(C)CN(c2ncc(-c3n[nH]c4cc(Cl)c(O[C@H](C)c5c(Cl)cnc(C)c5Cl)cc34)cc2F)C1` [Example 275, 1-[5-[6-chloro-5-[(1R)-1-(3,5-dichloro-2-methyl-4-pyridyl)ethoxy]-1H-indazol-3-yl]-3-fluoro-2-pyridyl]-N,3-dimethyl-azetidin-3-amine], for which the equilibrium dissociation constant (Kd) on FGFR1 lay within 1 to 20 nM; on FGFR2, 20 to 100 nM; at FGFR3, 1 to 20 nM; at FGFR3 (V555M), 1 to 20 nM; at FGFR4 it was 1 to 20 nM.
`C[C@H](Oc1ccc2[nH]nc(-c3cnc(N4CCC4)c(C#N)c3)c2c1)c1c(Cl)cnc(F)c1Cl` [Example 283, (S)-2-(azetidin-1-yl)-5-(5-(1-(3,5-dichloro-2-fluoropyridin-4-yl)ethoxy)-1H-indazol-3-yl)nicotinonitrile]: the Kd on FGFR1, at FGFR2, at FGFR3, at FGFR3 (V555M) and on FGFR4 was more than 300 nM each time.
Consider `C[C@@H](Oc1ccc2[nH]nc(-c3cnc(N4CC[C@@H](O)C4)c(C#N)c3)c2c1)c1c(Cl)cnc(F)c1Cl` [Example 284, 5-(5-((R)-1-(3,5-dichloro-2-fluoropyridin-4-yl)ethoxy)-1H-indazol-3-yl)-2-((R)-3-hydroxypyrrolidin-1-yl)nicotinonitrile], for which the Kd at FGFR1 was more than 300 nM; on FGFR2 it was more than 300 nM; at FGFR3, 100 to 300 nM; at FGFR3 (V555M), 20 to 100 nM; on FGFR4 it was 20 to 100 nM.
For the compound `C[C@@H](Oc1ccc2[nH]nc(-c3cnc(N4CCCC4)c(C#N)c3)c2c1)c1c(Cl)cncc1Cl` [Example 285, 5-[5-[(1R)-1-(3,5-dichloro-4-pyridyl)ethoxy]-1H-indazol-3-yl]-2-pyrrolidin-1-yl-pyridine-3-carbonitrile], the Kd is more than 300 nM on FGFR1; more than 300 nM on FGFR2; 100 to 300 nM at FGFR3; 20 to 100 nM at FGFR3 (V555M); 1 to 20 nM on FGFR4.
For `C[C@@H](Oc1ccc2[nH]nc(-c3cnc(N4CCC4)c(C#N)c3)c2c1)c1c(Cl)cnc(F)c1Cl` [Example 286, (R)-2-(azetidin-1-yl)-5-(5-(1-(3,5-dichloro-2-fluoropyridin-4-yl)ethoxy)-1H-indazol-3-yl)nicotinonitrile], the Kd is more than 300 nM on FGFR1; more than 300 nM at FGFR2; more than 300 nM on FGFR3; more than 300 nM at FGFR3 (V555M); 100 to 300 nM on FGFR4.
Consider `C[C@@H](Oc1ccc2[nH]nc(-c3cnc(N4CC(O)C4)c(C#N)c3)c2c1)c1c(Cl)cnc(F)c1Cl` [Example 287, (R)-5-(5-(1-(3,5-dichloro-2-fluoropyridin-4-yl)ethoxy)-1H-indazol-3-yl)-2-(3-hydroxyazetidin-1-yl)nicotinonitrile], for which the Kd was more than 300 nM at FGFR1; more than 300 nM on FGFR2; 100 to 300 nM on FGFR3; 100 to 300 nM on FGFR3 (V555M); 20 to 100 nM on FGFR4.
